Assay [1] deals with T1, Pseudomonas aeruginosa LpxC enzyme (Pseudomonas aeruginosa, UniProt P47205).
T1 construct: made in house; host or cells: E. coli
T1 sequence (P47205 1-303): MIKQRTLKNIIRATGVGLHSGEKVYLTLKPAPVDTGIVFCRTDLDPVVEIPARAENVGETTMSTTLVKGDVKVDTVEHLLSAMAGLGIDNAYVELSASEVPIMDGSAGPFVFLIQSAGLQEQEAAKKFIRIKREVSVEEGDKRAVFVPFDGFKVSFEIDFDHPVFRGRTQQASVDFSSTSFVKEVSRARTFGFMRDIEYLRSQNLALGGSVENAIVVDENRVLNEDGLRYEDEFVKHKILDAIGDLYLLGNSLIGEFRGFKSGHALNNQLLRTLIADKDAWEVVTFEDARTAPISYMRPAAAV
Briefly: IC50 assay, LpxC enzyme from P. aeruginosa (PA LpxC enzyme IC50). As to conditions: Table 3; LpxC enzyme 0.1 nM, 25° C., 1 hour; read-out: PA:IC50. Type of assay: biochemical. As for the experimental part:
In order to assess the compounds biological activity, selected in vitro assays were conducted on selected compounds. One of the assays measured the compounds ability to disrupt the synthesis of lipopolysaccharide, LPS, which is a component of the outer membrane of Gram-negative bacteria. Disruption of this synthesis is lethal to the bacteria. The assay determined the compound's ability to inhibit LpxC, which is the first enzyme in the biosynthetic pathway for LPS (measured as IC50). Additionally, MICs (minimal inhibitory concentrations) were determined for several bacteria. The specific protocols are described below:
A) IC50 Assay, LpxC Enzyme from P. aeruginosa (Labeled as PA LpxC Enzyme IC50):
At the end of 1 hour, 5 ul of 1 N HCl was added to stop the enzyme reaction, the plates were centrifuged, and then processed with the BioTrove Rapidfire HTMS Mass Spectrometry System. A no-enzyme control was used in calculating the IC50 values from the percent conversion values.

The test system of assay [2] is Acinetobacter baumannii/haemolyticus, multidrug-resistant clinical isolate (AB-3167). Briefly: MIC determination, AB-3167. As to conditions: Table 3, lower of duplicate values. Type of assay: cell-based. The protocol:
(§1) The in vitro antibacterial activity of compounds described in the Examples was evaluated by minimum inhibitory concentration (MIC) testing according to Clinical and Laboratory Standards Institute (CLSI). See: Clinical and Laboratory Standards Institute. Methods for Dilution Antimicrobial Susceptibility Tests for Bacteria that Grow Aerobically; Approved Standard-Eighth Edition. CLSI document M7-A8 [ISBN 1-56238-689-1]. Clinical and Laboratory Standards Institute, 940 West Valley Road, Suite 1400, Wayne, Pa. 19087-1898 USA, 2006; also Clinical and Laboratory Standards Institute. Performance Standards for Antimicrobial Susceptibility Testing; Twentieth Informational Supplement. CLSI document M100-S20 [ISBN 1-56238-716-2]. Clinical and Laboratory Standards Institute.
(§2) The MIC determination is a standard laboratory method for evaluating the antibacterial activity of a compound. The MIC represents the lowest drug concentration that inhibits visible growth of bacteria following overnight incubation. […] Typically, the drug concentration range is broken down into 2-fold increments (e.g. 0.06 μg/mL, 0.12 μg/mL. 0.25 μg/mL, 0.50 μg/mL, 1.0 μg/mL, etc.) and the various drug concentrations are all individually incubated overnight with approximately the same number of bacteria. The MIC is then determined by visually inspecting the drug effect at each concentration, and identifying the lowest drug concentration that has inhibited bacterial growth as compared to the drug free control. Typically, bacteria continue to grow at drug concentrations lower than the MIC and don't grow at concentrations at and above the MIC.
(§3) The MIC values described in Table 2 and 3 below were derived from assays wherein each test compound was evaluated in duplicate. In cases where the duplicate values varied by 0-2-fold, the lower of the two values was reported below. Generally speaking, if the duplicate values varied by more than 2-fold, the assay was considered non-valid and was repeated until the variation between duplicate runs was ≦2-fold. In line with the CLSI guidelines referred to above, both control organisms and reference compounds were utilized in each MIC assay to provide proper quality control. MIC values generated with these control organisms and reference compounds were required to fall within a defined range for the assay to be considered valid and be included herein. Those skilled in the art will recognize that MIC values can and do vary from experiment to experiment. Generally speaking, it should be recognized that MIC values often vary +/−2-fold from experiment to experiment. While a single MIC is reported for each compound and each microorganism, the reader should not conclude that each compound was only tested once. Several of the compounds were subjected to multiple tests. The data reported in Tables 2 and 3 is reflective of the compounds relative activity and different MICs may have been generated on these occasions in line with the guidelines described above.
(§4) The following bacterial strains were used in these MIC determinations:
2) Acinetobacter baumannii/haemolyticus: Multidrug-resistant clinical isolate labeled as AB-3167 in Tables 2 and 3;

For assay [3], the system named is Escherichia coli EC-1: VOGEL, mouse virulent. Briefly: MIC determination, EC-1. Type of assay: cell-based. As to conditions: Escherichia coli, read-out: EC-1 (MIC), Table 3, lower of duplicate values. The protocol:
as §1, §2, §3, §4
3) Escherichia coli EC-1: VOGEL, mouse virulent labeled as EC-1 in Tables 2 and 3;

Another assay concerns PA:UC12120. Briefly: MIC determination, PA:UC12120 (Table 3). Type of assay: cell-based, Pseudomonas aeruginosa. The settings on record: Pseudomonas aeruginosa, UC12120, Table 3, lower of duplicate values. As for the experimental part: as §1, §2, §3
In Table 3 below, column 1 corresponds to the Example number, column 2 provides the IUPAC name, columns 3-6 provide in vitro biological data generated in the same manner as in Table 2, columns 7 and 8 provide the retention times and mass spectra generated via LCMS, using the method described below. All data is not currently available for all compounds, as indicated by a blank cell in Table 3.

Values after ≈ are worked out from the molar mass of the structure shown.

The term IC50 denotes the concentration at which inhibition is half-maximal. As usually defined, the MIC is the lowest concentration that inhibits growth of the organism. With `CN1Cc2cc(-c3cc(=O)n(CCC(C)(C(=O)NO)S(C)(=O)=O)cc3F)ccc2C1=O` (stereo not drawn) [Example 64, 4-[5-fluoro-4-(2-methyl-1-oxo-2,3-dihydro-1H-isoindol-5-yl)-2-oxopyridin-1(2H)-yl]-N-hydroxy-2-methyl-2-(methylsulfonyl)butanamide], the IC50 in assay [1] was found to be 7.2 nM. Besides, the results for the MIC (in assay [2]; in assay [3]; with PA:UC12120) were greater than 64 µg/mL, greater than 64 µg/mL and 64 µg/mL (≈ 142 µM), respectively.
For `CC(CCn1cc(F)c(-c2ccc3c(c2)CCO3)cc1=O)(C(=O)NO)S(C)(=O)=O` (stereo not drawn) [Example 120, 4-[4-(2,3-dihydro-1-benzofuran-5-yl)-5-fluoro-2-oxopyridin-1(2H)-yl]-N-hydroxy-2-methyl-2-(methylsulfonyl)butanamide], the IC50 in assay [1] was determined as 0.9 nM. Further, the MIC in assay [2] was greater than 64 µg/mL; in assay [3] it was 2 µg/mL (≈ 4.71 µM); in the assay on PA:UC12120, 1 µg/mL (≈ 2.36 µM).
As to `COc1ccc(-c2cc(=O)n(CCC(C)(C(=O)NO)S(C)(=O)=O)cc2F)cn1` (stereo not drawn) [Example 89, 4-(5′-fluoro-6-methoxy-2′-oxo-3,4′-bipyridin-1′(2′H)-yl)-N-hydroxy-2-methyl-2-(methylsulfonyl)butanamide], the half-maximal inhibitory concentration (IC50) in assay [1] worked out at 3.1 nM. In addition, the MIC in assay [2] is greater than 64 µg/mL; in assay [3], 8 µg/mL (≈ 19.4 µM); against PA:UC12120, 2 µg/mL (≈ 4.84 µM).
In the same order, the values of `COc1cc(-c2cc(=O)n(CCC(C)(C(=O)NO)S(C)(=O)=O)cc2F)cnc1OC` (stereo not drawn) [Example 75, 4-(5′-fluoro-5,6-dimethoxy-2′-oxo-3,4′-bipyridin-1′(2′H)-yl)-N-hydroxy-2-methyl-2-(methylsulfonyl)butanamide] are 45.4 nM, greater than 64 µg/mL, greater than 64 µg/mL and greater than 64 µg/mL.
Take `CCOc1cccc(-c2cc(=O)n(CCC(C)(C(=O)NO)S(C)(=O)=O)cc2F)c1` (stereo not drawn) [Example 112, 4-[4-(3-ethoxyphenyl)-5-fluoro-2-oxopyridin-1(2H)-yl]-N-hydroxy-2-methyl-2-(methylsulfonyl)butanamide]: the IC50 in assay [1] was found to be 3.1 nM. Also, the minimum inhibitory concentration (MIC) in assay [2] is greater than 64 µg/mL; in assay [3], 2 µg/mL (≈ 4.69 µM); with PA:UC12120, 4 µg/mL (≈ 9.38 µM).
Take `CC(CCn1cc(F)c(-c2ccccc2C#N)cc1=O)(C(=O)NO)S(C)(=O)=O` (stereo not drawn) [Example 94, 4-[4-(2-cyanophenyl)-5-fluoro-2-oxopyridin-1(2H)-yl]-N-hydroxy-2-methyl-2-(methylsulfonyl)butanamide]: in assay [1], the IC50 was 32.3 nM. Moreover, the results for the minimum inhibitory concentration (MIC) (in assay [2]; in assay [3]; in the assay on PA:UC12120) were 32 µg/mL (≈ 78.5 µM), 8 µg/mL (≈ 19.6 µM) and 32 µg/mL (≈ 78.5 µM), respectively.
Turning to `COc1ncccc1-c1cc(=O)n(CCC(C)(C(=O)NO)S(C)(=O)=O)cc1F` (stereo not drawn) [Example 69, 4-(5′-fluoro-2-methoxy-2′-oxo-3,4′-bipyridin-1′(2′H)-yl)-N-hydroxy-2-methyl-2-(methylsulfonyl)butanamide], the IC50 in assay [1] came out at 16.6 nM. Also, the minimum inhibitory concentration (MIC) in assay [2] was greater than 64 µg/mL; in assay [3], 64 µg/mL (≈ 155 µM); against PA:UC12120, 8 µg/mL (≈ 19.4 µM).
As to `CC(CCn1cc(F)c(-c2ccc(C(F)(F)F)nc2)cc1=O)(C(=O)NO)S(C)(=O)=O` (stereo not drawn) [Example 113, 4-[5′-fluoro-2′-oxo-6-(trifluoromethyl)-3,4′-bipyridin-1′(2′H)-yl]-N-hydroxy-2-methyl-2-(methylsulfonyl)butanamide], the 50% inhibitory concentration (IC50) in assay [1] is 29.6 nM. The results for the MIC (in assay [2]; in assay [3]; against PA:UC12120) were greater than 64 µg/mL, greater than 64 µg/mL and 32 µg/mL (≈ 70.9 µM), respectively.
As to `CC(CCn1cc(F)c(-c2ccc(Cl)c(C#N)c2)cc1=O)(C(=O)NO)S(C)(=O)=O` (stereo not drawn) [Example 102, 4-[4-(4-chloro-3-cyanophenyl)-5-fluoro-2-oxopyridin-1(2H)-yl]-N-hydroxy-2-methyl-2-(methylsulfonyl)butanamide], in assay [1], the 50% inhibitory concentration (IC50) amounted to 2.1 nM. For the same molecule, the minimum inhibitory concentration (MIC) in assay [2] was greater than 64 µg/mL; in assay [3], 4 µg/mL (≈ 9.05 µM); in the assay with PA:UC12120, 4 µg/mL (≈ 9.05 µM).
As for `CC(CCn1cc(F)c(-c2ccc3cn[nH]c3c2)cc1=O)(C(=O)NO)S(C)(=O)=O` (stereo not drawn) [Example 51, 4-[5-fluoro-4-(1H-indazol-6-yl)-2-oxopyridin-1(2H)-yl]-N-hydroxy-2-methyl-2-(methylsulfonyl)butanamide], the IC50 in assay [1] came out at 3.9 nM. The minimum inhibitory concentration (MIC) (in assay [2]; in assay [3]; in the assay with PA:UC12120) was greater than 64 µg/mL throughout.
As for `CC(CCn1cc(F)c(-c2cnc3ccccc3c2)cc1=O)(C(=O)NO)S(C)(=O)=O` (stereo not drawn) [Example 87, 4-(5-fluoro-2-oxo-4-quinolin-3-ylpyridin-1(2H)-yl)-N-hydroxy-2-methyl-2-(methylsulfonyl)butanamide], the IC50 in assay [1] came out at 6.1 nM. Besides, the MIC in assay [2] was greater than 64 µg/mL; in assay [3] it was 16 µg/mL (≈ 36.9 µM); with PA:UC12120 it was 8 µg/mL (≈ 18.5 µM).
For `COc1ccc(-c2cc(=O)n(CCC(C)(C(=O)NO)S(C)(=O)=O)cc2F)cc1` (stereo not drawn) [Example 59, 4-[5-fluoro-4-(4-methoxyphenyl)-2-oxopyridin-1(2H)-yl]-N-hydroxy-2-methyl-2-(methylsulfonyl)butanamide] the same measures were 1 nM, greater than 64 µg/mL, 1 µg/mL (≈ 2.42 µM) and 1 µg/mL (≈ 2.42 µM).
For `CCOc1cc(-c2cc(=O)n(CCC(C)(C(=O)NO)S(C)(=O)=O)cc2F)ccn1` (stereo not drawn) [Example 92, 4-(2′-ethoxy-5-fluoro-2-oxo-4,4′-bipyridin-1(2H)-yl)-N-hydroxy-2-methyl-2-(methylsulfonyl)butanamide], the IC50 in assay [1] turned out to be 5.7 nM. Besides, the results for the minimal inhibitory concentration (MIC) (in assay [2]; in assay [3]; with PA:UC12120) were greater than 64 µg/mL, 8 µg/mL (≈ 18.7 µM) and 8 µg/mL (≈ 18.7 µM), respectively.
On to `COc1cccc(-c2cc(=O)n(CCC(C)(C(=O)NO)S(C)(=O)=O)cc2F)c1F` (stereo not drawn) [Example 118, 4-[5-fluoro-4-(2-fluoro-3-methoxyphenyl)-2-oxopyridin-1(2H)-yl]-N-hydroxy-2-methyl-2-(methylsulfonyl)butanamide], for which, in assay [1], the half-maximal inhibitory concentration (IC50) came to 0.7 nM. Also, the values for the MIC (in assay [2]; in assay [3]; in the assay with PA:UC12120) were greater than 64 µg/mL, 1 µg/mL (≈ 2.32 µM) and 1 µg/mL (≈ 2.32 µM), respectively.
Consider `CCOc1ccc(-c2cc(=O)n(CCC(C)(C(=O)NO)S(C)(=O)=O)cc2F)cc1F` (stereo not drawn) [Example 95, 4-[4-(4-ethoxy-3-fluorophenyl)-5-fluoro-2-oxopyridin-1(2H)-yl]-N-hydroxy-2-methyl-2-(methylsulfonyl)butanamide], for which the IC50 in assay [1] was determined as 1.2 nM. Further, the minimal inhibitory concentration (MIC) in assay [2] stood at 64 µg/mL (≈ 144 µM); in assay [3], 1 µg/mL (≈ 2.25 µM); in the assay with PA:UC12120, 2 µg/mL (≈ 4.5 µM).

The values are drawn from US8624034B2, “Fluoro-pyridinone derivatives useful as antibacterial agents” (Pfizer Inc., priority 2011, dated 2014).
